{"source": "patent US5510340A", "about": "“Antihypercholesterolemic compounds and related pharmaceutical compositions and methods of use” (SRI International, priority 1992, dated 1996)", "key": {"[1]": {"test_system": "Cholesterol Biosynthesis in CHO Cells", "assay": "In Vitro Assay for Inhibition of Cholesterol Biosynthesis in CHO Cells", "assay_type": "cell-based, Chinese Hamster", "details": "Cricetulus griseus, 14C-acetate incorporation into cholesterol, 16-18 h incubation with compound", "procedure": "Chinese Hamster ovary (CHO) cells were seeded at 1×10^5 cells per 60-mm Petri dish and incubated at 37° C. in F-12 medium supplemented with fetal calf serum (5%). After 24 h, the medium was aspirated and replaced with delipidated calf serum in F-12 medium containing the test compounds. At various concentrations, either ethanol or dimethyl sulfoxide was used to dissolve the test compounds to a final concentration of 0.1% in the cell medium. Controls contained the vehicle alone. After incubation for 16-18 h, ^14 C-acetate (20 μM final concentration) was added and incubation continued for 5.5 h. […] The cells were then scraped off the plates with a rubber policeman into saline (2 mL). An aliquot for protein was taken, and the remainder of the cell suspension was centrifuged at 800×g for 10 min. The supernatant was discarded and the pellet extracted by vortexing 15 s in chloroform:methanol (2 mL of 2:1). […] NaCl (0.4 mL) was added, vortexed, and centrifuged, and the top layer was discarded. A portion of the upper phase mixture of chloroform:methanol:water (0.4 mL of 3:48:47) was added and gently swirled to avoid mixing with the bottom layer. The resultant samples were centrifuged, and the top layer was discarded. The procedure was repeated before methanol was finally added to combine the two layers and the solvent was evaporated. Chloroform (200 μL) was added to the residue and an aliquot (150 μL) taken. To the aliquot was added cholesterol (40 μg in 20 μL), and the samples were concentrated. The lipids were dissolved in chloroform (50 μL) and spotted on silica gel G thin-layer chromatography plates. After development in hexane:ether:acetic acid (80:20:1), the ^14 C-cholesterol spot was located with iodine vapor and scraped into a scintillation vial, and the radioactivity was counted with a scintillation counter."}, "[2]": {"test_system": "Cholesterol Levels in Plasma of Rats", "assay": "Assay for Lowering Cholesterol Levels in Rats with Oral Administration of Test Compound 15", "assay_type": "in vivo, Male Sprague-Dawley rats", "details": "rat plasma, gavage, mean ± S.E.", "procedure": "Male Sprague-Dawley rats weighing 120 to 150 g were used. The animals were placed on a cholesterol-free diet immediately upon arrival and housed in a room with a reverse light cycle. One week after they had adapted to the light cycle, the experiment was begun by gavaging the animals three times daily with various amounts of test compound 13 suspended in 1.0 mL of saline. The control group received 1.0 mL of saline alone. On the seventh day of the experiment, sodium 1-^14 C! acetate (20 μCi/rat) was injected intraperitoneally 30 min after the oral administration (gavage) of test compounds and 2 h before the mid-dark point in the diurnal cycle; 4 h after the ^14 C-acetate injection, the animals were killed and blood samples were collected after decapitation. Plasma was obtained by centrifuging blood in an EDTA-treated centrifuge tube at 3000 rpm for 10 min. Cholesterol synthesis was measured by determining the level of ^14 C-labeled nonsaponifiable lipid present in 1.0 mL of plasma; 1.0 mL of plasma was first mixed with 1.0 mL of saline, followed by 5.0 mL of 10% KOH in absolute ethanol. Samples were saponified at 75° C. for 1 h. After cooling, 44,000 dpm, 0.5 nmol of 1,2-^3 H! cholesterol was added to each sample as an internal standard for calculating recovery through the extraction procedure. Samples were extracted once with 5 mL of petroleum ether, and the organic phase was backwashed with 5 mL of saline. The extracts were dried on a nitrogen evaporator, and the residue was reconstituted into 0.5 mL of CHCl3 -MeOH (2:1). The 0.5-mL reconstituted samples were transferred into counting vials containing 2 mL of ethanol, and both ^3 H and ^14 C were counted in 10 mL of scintillation fluid. The ^3 H-cholesterol internal standard recovery value from each sample was used to correct each sample to 100% recovery of ^14 C-cholesterol. The total cholesterol level and HDL in each plasma sample was also measured. The comparison between test groups and the control group was evaluated for both cholesterol levels and ^14 C-acetate incorporation.\n(c.) Assay for Lowering Cholesterol Levels in Rats with Oral Administration of Test Compound 15:\nThe experiment was carried out as described in (b.). However, in this experiment, blood was drawn on days 0, 3 and 7. Total cholesterol levels and HDL were measured on these blood samples."}}}
{"smiles": "C[C@H](CCCC(C)(C)O)[C@H]1CC[C@H]2[C@@H]3CC=C4C[C@@H](O)CC[C@]4(C)[C@H]3CC[C@]12C", "values": [{"measurement": "IC50", "setting": "[1]", "value": 350, "unit": "nM"}]}
{"smiles": "CC(C)CCC[C@@H](C)[C@H]1CC(=O)C2=C3[C@H](O)C[C@H]4C[C@@H](O)CC[C@]4(C)[C@H]3CC[C@@]21C", "values": [{"measurement": "IC50", "setting": "[1]", "value": 1600, "unit": "nM"}]}
{"smiles": "CC(C)CCC[C@@H](C)[C@H]1C[C@H]2C3=C4[C@@H](C[C@H]5C[C@@H](O)CC[C@]5(C)[C@H]4CC[C@@]31C)n1c(=O)c3ccccc3c(=O)n12", "values": [{"measurement": "IC50", "setting": "[1]", "value": 2100, "unit": "nM"}]}
{"smiles": "CCOC(=O)N1[C@@H]2C[C@H]3C[C@@H](O)CC[C@]3(C)[C@H]3CC[C@@]4(C)C(=C23)[C@H](C[C@@H]4[C@H](C)CCCC(C)C)N1C(=O)OCC", "values": [{"measurement": "IC50", "setting": "[1]", "value": 800, "unit": "nM"}]}
{"smiles": "CCOC(=O)N1[C@@H]2C[C@H]3C[C@@H](OC(=O)c4ccccc4)CC[C@]3(C)[C@H]3CC[C@@]4(C)C(=C23)[C@H](C[C@@H]4[C@H](C)CCCC(C)C)N1C(=O)OCC", "values": [{"measurement": "IC50", "setting": "[1]", "value": 1300, "unit": "nM"}]}
{"smiles": "CC(C)CCC[C@@H](C)[C@H]1C[C@H]2C3=C4[C@@H](C[C@H]5C[C@@H](O)CC[C@]5(C)[C@H]4CC[C@@]31C)N(C)N2C", "values": [{"measurement": "IC50", "setting": "[1]", "value": 1600, "unit": "nM"}]}
{"smiles": "C[C@H](CCCC(C)(C)O)[C@H]1Cc2nnc3c4c2[C@]1(C)CC[C@@H]4[C@@]1(C)CC[C@H](O)C[C@@H]1C3", "values": [{"measurement": "IC50", "setting": "[1]", "value": 3400, "unit": "nM"}]}
{"smiles": "C[C@H](CCCC(C)(C)F)[C@H]1Cc2nnc3c4c2[C@]1(C)CC[C@@H]4[C@@]1(C)CC[C@H](O)C[C@@H]1C3", "values": [{"measurement": "IC50", "setting": "[1]", "value": 160, "unit": "nM"}]}
{"smiles": "CC(C)[C@@H](C)/C=C/[C@@H](C)[C@H]1Cc2nnc3c4c2[C@]1(C)CC[C@@H]4[C@@]1(C)CC[C@H](O)C[C@@H]1C3", "values": [{"measurement": "IC50", "setting": "[1]", "value": 110, "unit": "nM"}]}
{"smiles": "CC(C)CCC[C@@H](C)[C@H]1C[C@H](O)C2=C3C(=O)C[C@H]4C[C@@H](O)CC[C@]4(C)[C@H]3CC[C@@]21C", "values": [{"measurement": "IC50", "setting": "[1]", "value": 1100, "unit": "nM"}]}
{"smiles": "CC(C)CCC[C@@H](C)[C@H]1C[C@H](O)C2=C3C(=O)C[C@H]4C[C@@H](OC(=O)c5ccccc5)CC[C@]4(C)[C@H]3CC[C@@]21C", "values": [{"measurement": "IC50", "setting": "[1]", "value": 3500, "unit": "nM"}]}
{"smiles": "CO[C@@H]1C[C@H]([C@H](C)CCCC(C)C)[C@@]2(C)CC[C@H]3C(=C12)CC[C@H]1C[C@@H](O)CC[C@@]13C", "values": [{"measurement": "IC50", "setting": "[1]", "value": 900, "unit": "nM"}]}
{"smiles": "CC(C)CCC[C@@H](C)[C@H]1CC(=O)C2=C3[C@H](F)C[C@H]4C[C@@H](OC(=O)c5ccccc5)CC[C@]4(C)[C@H]3CC[C@@]21C", "values": [{"measurement": "IC50", "setting": "[1]", "value": 200, "unit": "nM"}]}
{"smiles": "CC(C)CCC[C@@H](C)[C@H]1Cc2cnc3c4c2[C@]1(C)CC[C@@H]4[C@@]1(C)CC[C@H](O)C[C@@H]1C3", "note": "[Compound 15, pyridino 2',3',4',5':7,8,14,15!cholestan-3β-ol]", "values": [{"measurement": "Cholesterol Levels, HDL", "setting": "[2]; Day 0, 0.16 mg/rat/day, control 42.2 ± 4.40", "value": "39.6 ± 2.06", "unit": "Mg/100 mL"}, {"measurement": "Cholesterol Levels, Total", "setting": "[2]; Day 0, 0.16 mg/rat/day, control 95.8 ± 9.79", "value": "94.8 ± 5.5", "unit": "Mg/100 mL"}, {"measurement": "Cholesterol Levels, HDL", "setting": "[2]; Day 0, 0.33 mg/rat/day, control 42.2 ± 4.40", "value": "35.8 ± 1.91", "unit": "Mg/100 mL"}, {"measurement": "Cholesterol Levels, Total", "setting": "[2]; Day 0, 0.33 mg/rat/day, control 95.8 ± 9.79", "value": "99.0 ± 3.7", "unit": "Mg/100 mL"}, {"measurement": "Cholesterol Levels, HDL", "setting": "[2]; Day 0, 1.0 mg/rat/day, control 42.2 ± 4.40", "value": "37.8 ± 3.01", "unit": "Mg/100 mL"}, {"measurement": "Cholesterol Levels, Total", "setting": "[2]; Day 0, 1.0 mg/rat/day, control 95.8 ± 9.79", "value": "88.8 ± 7.78", "unit": "Mg/100 mL"}, {"measurement": "Cholesterol Levels, HDL", "setting": "[2]; Day 0, 3.0 mg/rat/day, control 42.2 ± 4.40", "value": "35.2 ± 3.14", "unit": "Mg/100 mL"}, {"measurement": "Cholesterol Levels, Total", "setting": "[2]; Day 0, 3.0 mg/rat/day, control 95.8 ± 9.79", "value": "85.6 ± 6.57", "unit": "Mg/100 mL"}, {"measurement": "Cholesterol Levels, HDL", "setting": "[2]; Day 3, 0.16 mg/rat/day, control 41.6 ± 2.62", "value": "36.4 ± 1.36", "unit": "Mg/100 mL"}, {"measurement": "Cholesterol Levels, Total", "setting": "[2]; Day 3, 0.16 mg/rat/day, control 85.2 ± 2.95", "value": "83.6 ± 3.56", "unit": "Mg/100 mL"}, {"measurement": "Cholesterol Levels, HDL", "setting": "[2]; Day 3, 0.33 mg/rat/day, control 41.6 ± 2.62", "value": "35.8 ± 2.40", "unit": "Mg/100 mL"}, {"measurement": "Cholesterol Levels, Total", "setting": "[2]; Day 3, 0.33 mg/rat/day, control 85.2 ± 2.95", "value": "75.6 ± 1.94", "unit": "Mg/100 mL"}, {"measurement": "Cholesterol Levels, HDL", "setting": "[2]; Day 3, 1.0 mg/rat/day, control 41.6 ± 2.62", "value": "34.4 ± 1.69", "unit": "Mg/100 mL"}, {"measurement": "Cholesterol Levels, Total", "setting": "[2]; Day 3, 1.0 mg/rat/day, control 85.2 ± 2.95", "value": "78.8 ± 2.86", "unit": "Mg/100 mL"}, {"measurement": "Cholesterol Levels, HDL", "setting": "[2]; Day 3, 3.0 mg/rat/day, control 41.6 ± 2.62", "value": "29.6 ± 0.98", "unit": "Mg/100 mL"}, {"measurement": "Cholesterol Levels, Total", "setting": "[2]; Day 3, 3.0 mg/rat/day, control 85.2 ± 2.95", "value": "72.2 ± 2.95", "unit": "Mg/100 mL"}, {"measurement": "Cholesterol Levels, HDL", "setting": "[2]; Day 7, 0.16 mg/rat/day, control 49.6 ± 4.01", "value": "39.8 ± 1.02", "unit": "Mg/100 mL"}, {"measurement": "Cholesterol Levels, Total", "setting": "[2]; Day 7, 0.16 mg/rat/day, control 84.8 ± 4.40", "value": "69.4 ± 3.66", "unit": "Mg/100 mL"}, {"measurement": "Cholesterol Levels, HDL", "setting": "[2]; Day 7, 0.33 mg/rat/day, control 49.6 ± 4.01", "value": "36.0 ± 2.55", "unit": "Mg/100 mL"}, {"measurement": "Cholesterol Levels, Total", "setting": "[2]; Day 7, 0.33 mg/rat/day, control 84.8 ± 4.40", "value": "57.6 ± 2.89", "unit": "Mg/100 mL"}, {"measurement": "Cholesterol Levels, HDL", "setting": "[2]; Day 7, 1.0 mg/rat/day, control 49.6 ± 4.01", "value": "25.0 ± 1.87", "unit": "Mg/100 mL"}, {"measurement": "Cholesterol Levels, Total", "setting": "[2]; Day 7, 1.0 mg/rat/day, control 84.8 ± 4.40", "value": "58.0 ± 4.06", "unit": "Mg/100 mL"}, {"measurement": "Cholesterol Levels, HDL", "setting": "[2]; Day 7, 3.0 mg/rat/day, control 49.6 ± 4.01", "value": "15.4 ± 1.40", "unit": "Mg/100 mL"}, {"measurement": "Cholesterol Levels, Total", "setting": "[2]; Day 7, 3.0 mg/rat/day, control 84.8 ± 4.40", "value": "46.4 ± 2.23", "unit": "Mg/100 mL"}]}
